The values below come from ChEMBL document CHEMBL1157299, “Alkaloids from Eschscholzia californica and their capacity to inhibit binding of [3H]8-Hydroxy-2-(di-N-propylamino)tetralin to 5-HT1A receptors in Vitro” (J Nat Prod, 2006).

For test [1], the target named is T1, 5-hydroxytryptamine receptor 1A (Homo sapiens, UniProt P08908).
T1 sequence (P08908 whole entry): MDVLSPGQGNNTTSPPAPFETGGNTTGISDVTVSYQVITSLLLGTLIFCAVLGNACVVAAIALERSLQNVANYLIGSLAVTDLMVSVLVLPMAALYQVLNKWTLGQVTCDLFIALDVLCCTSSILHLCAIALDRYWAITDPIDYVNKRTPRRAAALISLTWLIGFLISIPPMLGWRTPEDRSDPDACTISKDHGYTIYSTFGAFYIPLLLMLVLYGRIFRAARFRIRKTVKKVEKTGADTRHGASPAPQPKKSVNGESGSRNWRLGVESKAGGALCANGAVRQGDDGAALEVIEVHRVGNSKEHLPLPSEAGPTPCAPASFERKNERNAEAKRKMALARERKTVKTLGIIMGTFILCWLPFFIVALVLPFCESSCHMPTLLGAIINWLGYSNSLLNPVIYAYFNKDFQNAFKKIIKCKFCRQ
Description: (§1) Displacement of [3H]8-OH-DPAT from human recombinant 5HT1A receptor expressed in CHO cells. Format: cell-based. (In general: Displacement assays read how much labelled ligand stays bound in the presence of the test substance.)

Test [2] concerns the target T2, Substance-K receptor (Homo sapiens, UniProt P21452).
T2 sequence (P21452 whole entry): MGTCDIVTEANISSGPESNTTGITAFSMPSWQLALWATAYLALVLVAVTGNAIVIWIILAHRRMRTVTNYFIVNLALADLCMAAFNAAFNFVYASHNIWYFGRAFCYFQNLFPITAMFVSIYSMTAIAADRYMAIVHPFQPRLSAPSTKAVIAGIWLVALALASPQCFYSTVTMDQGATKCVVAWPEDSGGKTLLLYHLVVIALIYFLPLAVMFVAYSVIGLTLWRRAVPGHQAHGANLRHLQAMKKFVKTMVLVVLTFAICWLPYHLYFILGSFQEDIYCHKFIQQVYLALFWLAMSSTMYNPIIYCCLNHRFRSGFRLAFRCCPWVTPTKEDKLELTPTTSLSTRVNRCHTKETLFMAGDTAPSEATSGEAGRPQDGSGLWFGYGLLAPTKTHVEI
Description: Displacement of [3H]SR48968 from human recombinant NK2 receptor expressed in CHO cells. The format is cell-based.

Test [3] has as its target Substance-P receptor (Homo sapiens, UniProt P25103). Description: Displacement of [3H]SR140333 from human recombinant NK1 receptor expressed in CHO cells. Format: cell-based.
Test [4] addresses T3, 5-hydroxytryptamine receptor 1A (Homo sapiens) (UniProt P08908).
T3 sequence (whole entry): T1 sequence (P08908 whole entry)
Described as §1. The format is cell-based.

The target of test [5] is Cytochrome P450 3A4 (Homo sapiens, UniProt P08684).
Chain of Cytochrome P450 3A4 (P08684 whole entry): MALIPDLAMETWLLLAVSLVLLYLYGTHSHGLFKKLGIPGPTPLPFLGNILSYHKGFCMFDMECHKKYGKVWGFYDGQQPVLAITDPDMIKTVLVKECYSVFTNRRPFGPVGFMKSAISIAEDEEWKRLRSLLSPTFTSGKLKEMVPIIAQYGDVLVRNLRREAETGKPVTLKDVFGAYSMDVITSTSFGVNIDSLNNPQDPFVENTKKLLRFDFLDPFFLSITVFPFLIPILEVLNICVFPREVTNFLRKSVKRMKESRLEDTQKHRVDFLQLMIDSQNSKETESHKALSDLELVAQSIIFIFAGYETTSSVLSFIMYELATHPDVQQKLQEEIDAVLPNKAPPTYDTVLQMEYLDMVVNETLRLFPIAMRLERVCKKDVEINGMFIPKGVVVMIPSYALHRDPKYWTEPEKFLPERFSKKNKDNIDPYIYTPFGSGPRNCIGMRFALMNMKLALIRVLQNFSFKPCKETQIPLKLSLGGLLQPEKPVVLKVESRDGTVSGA

Structures are written as SMILES. Activity calls are given as the source filed them. The rule behind the calls is not given here. Where a SMILES comes first, the peptide text is derived from it. [ ]: non-standard residue; d: D form. Bounds are passed on as bounds.

Chain of Substance-P receptor (P25103 whole entry): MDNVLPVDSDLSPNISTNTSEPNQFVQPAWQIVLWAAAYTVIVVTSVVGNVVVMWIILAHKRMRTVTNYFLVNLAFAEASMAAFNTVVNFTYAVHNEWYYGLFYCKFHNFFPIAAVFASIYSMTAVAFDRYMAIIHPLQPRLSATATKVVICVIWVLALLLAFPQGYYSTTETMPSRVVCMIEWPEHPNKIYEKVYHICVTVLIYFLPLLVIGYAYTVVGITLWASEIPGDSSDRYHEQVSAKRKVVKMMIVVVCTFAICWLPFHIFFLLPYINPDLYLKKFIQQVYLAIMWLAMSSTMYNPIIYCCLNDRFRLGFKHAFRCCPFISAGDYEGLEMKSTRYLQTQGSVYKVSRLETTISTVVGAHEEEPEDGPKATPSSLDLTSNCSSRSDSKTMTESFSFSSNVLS

Turning to `COc1cc2c(cc1O)C[C@H]1c3c(cc(OC)c(OC)c3-2)CCN1C`, in test [1], the EC50 was found to be 0.16 µM and the Ki turned out to be 0.085 µM.
Consider `CC(C)[C@H](NC(=O)[C@@H](Cc1c[nH]c2ccccc12)NC(=O)[C@H](Cc1ccc(O)cc1)NC(=O)[C@@H](N)CC(=O)O)C(=O)N[C@H](Cc1c[nH]c2ccccc12)C(=O)N[C@H](Cc1c[nH]c2ccccc12)C(=O)N[C@@H](CCCCN)C(N)=O` (H-DY[dW]V[dW][dW]K-NH2), for which the EC50 in test [2] was 0.0781 µM.
As for `Ic1ccccc1CN[C@@H]1C2CCN(CC2)[C@@H]1C(c1ccccc1)c1ccccc1` (relative stereo), the EC50 in test [3] came to 0.0244 µM.
`C[N+]1(C)[C@H]2Cc3cc4c(cc3[C@@H]1Cc1cc3c(cc12)COC3)OCO4` [CALIFORNIDINE]: the outcome in test [4] was inactive. Further, the EC50 in test [1] is > 100 µM. The IC50 in test [5] was > 80 µM.
For `COc1cc2c(cc1O)[C@@H]1Cc3cc4c(cc3[C@H](C2)N1C)OCO4` [CARYACHINE], in test [4], the Activity was 5 µM. Also, in test [1], the half-maximal effective concentration (EC50) stood at 9 µM.
In the case of `CN1[C@H]2Cc3cc4c(cc3[C@@H]1Cc1cc3c(cc12)OCO3)OCO4` [ESCHOLTZINE], in test [1], the EC50 is 11 µM and the Ki stood at 6 µM.
Take `COc1cc(-c2oc3cc(O)cc(O)c3c(=O)c2O[C@@H]2O[C@H](CO[C@@H]3O[C@@H](C)[C@H](O)[C@@H](O)[C@H]3O)[C@@H](O)[C@H](O)[C@H]2O)ccc1O` [NARCISSIN]: in test [5], the IC50 was > 80 µM.
With `CN1CCc2cc3c(cc2C(=O)Cc2ccc4c(c2C1)OCO4)OCO3` [PROTOPINE], the 50% effective concentration (EC50) in test [1] is > 100 µM. Also, the 50% inhibitory concentration (IC50) in test [5] was > 80 µM.
Regarding `O=c1c(O)c(-c2ccc(O)c(O)c2)oc2cc(O)cc(O)c12` [QUERCETIN], in test [4], the outcome was inactive. In addition, in test [1], the EC50 is > 100 µM.

One may read the EC50 as the concentration needed to bring the measured effect to its halfway point. As usually defined, the Ki is the equilibrium dissociation constant of an inhibitor or competing ligand from its target. For orientation: IC50 means the point on the concentration scale where inhibition reaches its midpoint. The low end stands for inhibition by little substance, the high end for a need for much substance.
